Measured values published in patent US8952183B2, “Inhibitors of sialidase or sialidase-like enzymes” (priority 2009, dated 2015).

Assays:
[1] = target: influenza A neuraminidase (N1) (Influenza A virus, UniProt P03468); assay type: biochemical
influenza neuraminidases = settings: Colman, 1999; cited from earlier work
[2] = tested on: bacterial or mammalian neuraminidases; settings: Colman, 1999; cited from earlier work

influenza A neuraminidase (N1), sequence (P03468 whole entry): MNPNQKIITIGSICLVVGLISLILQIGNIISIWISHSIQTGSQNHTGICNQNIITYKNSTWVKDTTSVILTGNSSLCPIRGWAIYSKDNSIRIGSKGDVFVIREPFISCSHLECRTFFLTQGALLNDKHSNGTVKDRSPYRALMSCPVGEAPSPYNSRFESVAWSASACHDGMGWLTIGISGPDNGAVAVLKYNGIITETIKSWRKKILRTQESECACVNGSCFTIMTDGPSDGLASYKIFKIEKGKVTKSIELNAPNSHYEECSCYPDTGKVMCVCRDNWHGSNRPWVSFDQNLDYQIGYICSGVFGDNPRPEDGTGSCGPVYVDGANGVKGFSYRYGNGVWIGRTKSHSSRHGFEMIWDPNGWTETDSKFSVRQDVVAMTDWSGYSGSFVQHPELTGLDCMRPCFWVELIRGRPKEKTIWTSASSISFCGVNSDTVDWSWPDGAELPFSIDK

| SMILES | potency as inhibitor compared with ATA [1] | potency against influenza neuraminidases (influenza neuraminidases) | potency against bacterial or mammalian neuraminidases [2] |
| --- | --- | --- | --- |
| CC(=N)N[C@H]1[C@H]([C@H](NC(C)=O)[C@@H](C)O)OC(C(=O)O)=C[C@@H]1O [Compound 8, 5-acetamidino-7-acetamido-3,5,7,9-tetradeoxy-D-glycero-D-galacto-non-2-enonate] | not as potent an inhibitor as Aurintricarboxylic acid (ATA) | – | – |
| CC(=O)N[C@H]1[C@H]([C@H](O)[C@H](O)CO)OC(C(=O)O)=C[C@@H]1N=C(N)N [zanamivir] | – | very potent | much less potent |
